Test results from paper PMC6199744, “Development of Chemical Proteomics for the Folateome and Analysis of the Kinetoplastid Folateome” (ACS Infectious Diseases, 2018).
Where two headings read alike, the source gives them in different places.

Legend:
Assay type in all cases: binding
[1] = target: T1, HeLa cell extract proteins (Homo sapiens, UniProt P43686)
T1 construct: endogenous in cells; host or cells: HeLa cell extract

[2] = target: T2, HeLa cell extract proteins (Homo sapiens, UniProt Q96DG6)
T2 construct: endogenous in cells; host or cells: HeLa cell extract
T2 sequence (Q96DG6 1-245): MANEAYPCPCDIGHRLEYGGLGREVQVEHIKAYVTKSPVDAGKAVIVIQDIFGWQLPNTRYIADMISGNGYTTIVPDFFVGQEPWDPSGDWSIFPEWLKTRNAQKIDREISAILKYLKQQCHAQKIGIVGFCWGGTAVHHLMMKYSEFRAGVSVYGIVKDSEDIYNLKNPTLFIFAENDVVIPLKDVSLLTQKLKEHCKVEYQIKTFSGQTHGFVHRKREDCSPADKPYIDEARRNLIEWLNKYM

[3] = target: T3, HeLa cell extract proteins (Homo sapiens, UniProt P30740)
T3 construct: endogenous in cells; host or cells: HeLa cell extract
T3 sequence (P30740 1-379): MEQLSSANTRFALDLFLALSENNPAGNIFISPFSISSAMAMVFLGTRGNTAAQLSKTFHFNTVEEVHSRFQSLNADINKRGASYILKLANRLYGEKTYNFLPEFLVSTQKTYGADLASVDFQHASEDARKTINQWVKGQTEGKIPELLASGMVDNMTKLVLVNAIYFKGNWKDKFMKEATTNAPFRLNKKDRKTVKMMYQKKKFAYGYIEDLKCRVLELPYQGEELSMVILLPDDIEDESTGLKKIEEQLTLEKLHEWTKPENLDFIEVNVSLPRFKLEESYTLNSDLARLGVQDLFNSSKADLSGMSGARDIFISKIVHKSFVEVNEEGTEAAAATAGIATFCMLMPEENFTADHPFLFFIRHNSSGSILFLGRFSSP

[4] = target: T4, HeLa cell extract proteins (Homo sapiens, UniProt P06703)
T4 construct: endogenous in cells; host or cells: HeLa cell extract

[5] = target: T5, HeLa cell extract proteins (Homo sapiens, UniProt Q9HA64)
T5 construct: endogenous in cells; host or cells: HeLa cell extract
T5 sequence (Q9HA64 1-309): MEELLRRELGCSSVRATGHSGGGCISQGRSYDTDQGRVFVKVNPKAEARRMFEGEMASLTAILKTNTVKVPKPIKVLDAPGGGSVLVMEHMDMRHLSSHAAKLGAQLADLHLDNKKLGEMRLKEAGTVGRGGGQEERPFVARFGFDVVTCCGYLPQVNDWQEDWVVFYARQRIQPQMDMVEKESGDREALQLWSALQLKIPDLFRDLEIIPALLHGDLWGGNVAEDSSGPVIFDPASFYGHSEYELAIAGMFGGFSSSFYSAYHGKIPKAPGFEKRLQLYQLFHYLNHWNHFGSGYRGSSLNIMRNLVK

[6] = target: T6, HeLa cell extract proteins (Homo sapiens, UniProt O00746)
T6 construct: endogenous in cells; host or cells: HeLa cell extract
T6 sequence (O00746 29-187): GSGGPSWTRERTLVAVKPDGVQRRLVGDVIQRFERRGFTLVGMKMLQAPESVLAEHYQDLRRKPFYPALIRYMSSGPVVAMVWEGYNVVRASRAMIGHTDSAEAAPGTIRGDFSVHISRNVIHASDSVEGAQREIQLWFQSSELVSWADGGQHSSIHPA

[7] = target: T7, HeLa cell extract proteins (Homo sapiens, UniProt Q9H2U1)
T7 construct: endogenous in cells; host or cells: HeLa cell extract
T7 sequence (Q9H2U1 1-1008): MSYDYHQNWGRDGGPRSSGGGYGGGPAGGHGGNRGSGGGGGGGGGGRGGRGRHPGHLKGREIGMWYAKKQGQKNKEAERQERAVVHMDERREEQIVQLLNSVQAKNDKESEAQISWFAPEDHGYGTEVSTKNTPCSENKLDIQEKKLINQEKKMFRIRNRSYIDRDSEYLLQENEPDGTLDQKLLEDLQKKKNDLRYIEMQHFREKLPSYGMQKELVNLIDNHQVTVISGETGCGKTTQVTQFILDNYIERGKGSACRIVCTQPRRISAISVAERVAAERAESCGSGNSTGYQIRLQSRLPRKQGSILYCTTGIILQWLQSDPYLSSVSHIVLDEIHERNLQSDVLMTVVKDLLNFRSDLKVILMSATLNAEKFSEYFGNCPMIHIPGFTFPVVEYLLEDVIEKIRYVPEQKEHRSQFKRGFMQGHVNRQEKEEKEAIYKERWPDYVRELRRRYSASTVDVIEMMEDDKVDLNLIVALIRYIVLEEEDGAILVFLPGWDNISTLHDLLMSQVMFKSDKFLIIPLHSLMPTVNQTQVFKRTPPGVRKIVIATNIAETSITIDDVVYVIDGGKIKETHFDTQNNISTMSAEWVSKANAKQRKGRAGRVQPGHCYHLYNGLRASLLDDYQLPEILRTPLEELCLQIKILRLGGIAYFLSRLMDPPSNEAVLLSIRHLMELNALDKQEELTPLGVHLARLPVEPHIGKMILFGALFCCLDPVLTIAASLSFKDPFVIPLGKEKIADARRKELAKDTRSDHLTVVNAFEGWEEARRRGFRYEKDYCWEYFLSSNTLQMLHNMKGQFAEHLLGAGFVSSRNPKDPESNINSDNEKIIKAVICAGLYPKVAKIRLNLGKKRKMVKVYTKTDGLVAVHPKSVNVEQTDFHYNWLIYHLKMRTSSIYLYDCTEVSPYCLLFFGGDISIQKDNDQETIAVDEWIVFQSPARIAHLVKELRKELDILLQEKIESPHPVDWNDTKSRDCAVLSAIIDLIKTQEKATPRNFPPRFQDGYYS

[8] = target: T8, HeLa cell extract proteins (Homo sapiens, UniProt P60228)
T8 construct: endogenous in cells; host or cells: HeLa cell extract
T8 sequence (P60228 whole entry): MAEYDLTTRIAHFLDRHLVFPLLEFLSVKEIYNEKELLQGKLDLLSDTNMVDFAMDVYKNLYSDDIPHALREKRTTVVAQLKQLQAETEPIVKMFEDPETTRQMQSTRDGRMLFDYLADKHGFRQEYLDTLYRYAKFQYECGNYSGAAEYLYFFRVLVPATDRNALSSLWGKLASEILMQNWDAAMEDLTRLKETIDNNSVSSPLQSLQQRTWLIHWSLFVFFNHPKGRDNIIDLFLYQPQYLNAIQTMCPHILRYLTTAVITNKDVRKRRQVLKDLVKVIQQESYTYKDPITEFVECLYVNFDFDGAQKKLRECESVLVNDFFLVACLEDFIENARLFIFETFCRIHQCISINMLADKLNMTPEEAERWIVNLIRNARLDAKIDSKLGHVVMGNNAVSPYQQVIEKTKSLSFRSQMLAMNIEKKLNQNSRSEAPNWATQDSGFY

[9] = HeLa, protein FN3KRP (KETOSAMINE-3-KINASE)
[10] = HeLa, protein DHX36 (ISOFORM 1 OF PROBABLE ATP-DEPENDENT RNA HELICASE DHX36)

T1 sequence (P43686 whole entry): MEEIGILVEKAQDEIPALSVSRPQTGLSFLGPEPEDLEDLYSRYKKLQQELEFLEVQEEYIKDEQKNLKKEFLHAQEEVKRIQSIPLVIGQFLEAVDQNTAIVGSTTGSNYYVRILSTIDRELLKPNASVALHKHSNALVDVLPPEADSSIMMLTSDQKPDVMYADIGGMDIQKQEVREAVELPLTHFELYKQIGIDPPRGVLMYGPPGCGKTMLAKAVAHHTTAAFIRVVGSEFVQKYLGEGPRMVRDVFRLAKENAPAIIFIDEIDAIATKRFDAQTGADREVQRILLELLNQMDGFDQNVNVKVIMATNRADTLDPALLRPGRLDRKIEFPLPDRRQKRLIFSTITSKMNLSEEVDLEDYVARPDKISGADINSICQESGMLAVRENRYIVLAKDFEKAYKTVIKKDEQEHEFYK

Structure (SMILES) | fold changes relative to vehicle control ([1]; protein PSMC4, HeLa) | fold changes relative to vehicle control ([2]; HeLa, protein CMBL) | fold changes relative to vehicle control ([3]; HeLa, protein SERPINB1) | fold changes relative to vehicle control ([4]; HeLa, protein S100A6) | fold changes relative to vehicle control [5, 9] | fold changes relative to vehicle control ([6]; HeLa, protein NME4) | fold changes relative to vehicle control [7, 10] | fold changes relative to vehicle control ([8]; HeLa, protein EIF3E) | fold changes relative to vehicle control ([2]; protein CMBL, HeLa) | fold changes relative to vehicle control ([3]; protein SERPINB1, HeLa) | fold changes relative to vehicle control ([4]; protein S100A6, HeLa) | fold changes relative to vehicle control ([5]; protein FN3KRP, HeLa) | fold changes relative to vehicle control ([7]; protein DHX36, HeLa) | fold changes relative to vehicle control ([8]; protein EIF3E, HeLa) | further results
Nc1nc2c(c(=O)[nH]1)N(C=O)C(CNc1ccc(C(=O)N[C@@H](CCC(=O)O)C(=O)O)cc1)CN2 (some centres unmarked) [LEU, leucovorin] | 0.97 | 1.04 | 0.98 | 1.3 | 1.08 | 1.04 | 1.12 | 1.15 |  |  |  |  |  |  | 
Nc1nc2[nH]cc(CCc3ccc(C(=O)N[C@@H](CCC(=O)O)C(=O)O)cc3)c2c(=O)[nH]1 [PTX, pemetrexed] |  |  |  |  |  |  |  |  |  |  |  |  |  |  | fold changes relative to vehicle control [1]: 1.01; fold changes relative to vehicle control [2]: 0.97; fold changes relative to vehicle control [3]: 1.06; fold changes relative to vehicle control [4]: 1.46; fold changes relative to vehicle control [5]: 1.01; fold changes relative to vehicle control [6]: 0.81; fold changes relative to vehicle control [7]: 0.99; fold changes relative to vehicle control [8]: 1.04
CCCCCCOc1ccc(Cc2cnc(N)nc2N)cc1 [compound 1] | 1.13 |  |  |  |  | 0.97 |  |  | 1.08 | 1.07 | 1.13 | 1 | 1.17 | 1.18 | 
CCCCCCOc1cccc(Cc2cnc(N)nc2N)c1 [compound 2] | 1.33 |  |  |  |  | 0.92 |  |  | 1.38 | 1.28 | 1.89 | 0.9 | 0.91 | 1.21 | 
Nc1nc2cccc(-c3ccccc3)c2n1Cc1ccc(Cl)c(Cl)c1 [compound 3] | 1.04 |  |  |  |  | 0.96 |  |  | 1.17 | 0.98 | 0.95 | 1.04 | 0.98 | 0.99 | 
NCCOCCOCC(=O)Nc1nc2ncc(CNc3ccc(C(=O)NC(CCC(=O)O)C(=O)O)cc3)nc2c(=O)[nH]1 (centres unmarked) [compound 6] | 1.13 | 1.03 | 1.09 | 1.94 | 0.85 | 0.81 | 1.07 | 1.11 |  |  |  |  |  |  | 
NCCCNc1ccc(C(=O)NC(CCC(=O)O)C(=O)O)cc1 (centres unmarked) [compound 7] | 0.98 | 1.25 | 0.99 | 1.26 | 1.07 | 0.98 | 1.03 | 1.01 |  |  |  |  |  |  | 
